Measured values as given in ChEMBL document CHEMBL1201862, “PubChem BioAssay data set” (2004).
Calls of active or inactive are those of the source.

Key:
[1] = Trypanosoma cruzi growth suppression in host cells – NIH3T3 host cells, beta-gal luminescence, confirmation (AID 2044); format: functional, cell-based;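 also: intracellular parasites grown in NIH/3T3 mouse fibroblasts as host cells; luminescent beta-galactosidase reporter signal from transgenic T. cruzi replicating inside host cells; inhibitors lower the luminescence signal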
[2] = NIH3T3 cell viability loss – ATP luminescence, mouse fibroblasts, counter-screen, dose response (AID 2010); format: functional, cell-based;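 also: cells exposed to compound for about 90 hours before reading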
Candida albicans [3] = test: fluconazole-resistant Candida strain growth inhibitors – CaCi-8 strain, dry powder, set 4, dose response (AID 488950); format: functional, organism-based
Candida albicans [4] = test: C. albicans growth inhibition with fluconazole – CaCi-2 strain, Alamar Blue, dry powder, set 4, dose response (AID 488943); format: functional, organism-based
Candida albicans [5] = test: antifungal activity against resistant Candida strain – CaCi-8, fluconazole, Alamar Blue, dry powder, dose response (AID 488807); format: functional, organism-based
NIH3T3 = test: mammalian cell viability counter-check – Alamar Blue, fluconazole, dry powder, cytotoxicity control for antifungal drug resistance project, dose response (AID 488809); format: functional, cell-based; settings: Mus musculus
DNA topoisomerase = DNA topoisomerase (Yersinia pestis, UniProt A0A2S9PM60); test: Yersinia topoisomerase I cleavage product accumulation – biochemical, cherry-pick, dose response (AID 588525)
Phospholipase A2 = Phospholipase A2 (Homo sapiens, UniProt P04054); test: phospholipase A2 activity inhibition – biochemical, set 2, counter-screen for ATG4B inhibitor project, dose response (AID 588586); format: functional
Cysteine protease ATG4B = Cysteine protease ATG4B (Homo sapiens, UniProt Q9Y4P1); test: autophagin-1 cysteine protease inhibition – biochemical, fluorescence, set 2, dose response (AID 588584); format: functional
[6] = target: Delta-type opioid receptor (Homo sapiens, UniProt P41143); test: Counterscreen for agonists of heterodimerization of the mu 1 (OPRM1) and delta 1 (OPRD1) opioid receptors: Luminescence-based cell-based high throughput dose response assay to identify agonists of OPRD1 homodimerization. [Related pubchem assays (depositor defined):AID504326, AID504355, AID504692, AID504904, AID504905]; format: functional
Mu-type opioid receptor = Mu-type opioid receptor (Homo sapiens, UniProt P35372); test: Counterscreen for agonists of heterodimerization of the mu 1 (OPRM1) and delta 1 (OPRD1) opioid receptors: Luminescence-based cell-based high throughput dose response assay to identify agonists of OPRM1 homodimerization.; format: functional;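 also: U2OS cells expressing OPRM1 and beta-arrestin as split beta-galactosidase partners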
[7] = target: 5-hydroxytryptamine receptor 5A (Homo sapiens, UniProt P47898); test: Counterscreen for agonists of OPRM1-OPRD1 heterodimerization: luminescence-based cell-based high throughput dose response assay to identify agonists of 5-hydroxytryptamine (serotonin) 5A receptor (HTR5A). [Related pubchem assays (depositor defined):AID504326, AID504355, AID504692, AID504904, AID504905]; format: functional
[8] = target: Tyrosine-protein phosphatase non-receptor type 7 (Homo sapiens, UniProt P35236); format: functional
[9] = target: Glyceraldehyde-3-phosphate dehydrogenase (Homo sapiens, UniProt P04406)
[10] = target: T1, Dual specificity protein phosphatase 6 (Rattus norvegicus, UniProt Q64346)
T1 sequence (Q64346 whole entry): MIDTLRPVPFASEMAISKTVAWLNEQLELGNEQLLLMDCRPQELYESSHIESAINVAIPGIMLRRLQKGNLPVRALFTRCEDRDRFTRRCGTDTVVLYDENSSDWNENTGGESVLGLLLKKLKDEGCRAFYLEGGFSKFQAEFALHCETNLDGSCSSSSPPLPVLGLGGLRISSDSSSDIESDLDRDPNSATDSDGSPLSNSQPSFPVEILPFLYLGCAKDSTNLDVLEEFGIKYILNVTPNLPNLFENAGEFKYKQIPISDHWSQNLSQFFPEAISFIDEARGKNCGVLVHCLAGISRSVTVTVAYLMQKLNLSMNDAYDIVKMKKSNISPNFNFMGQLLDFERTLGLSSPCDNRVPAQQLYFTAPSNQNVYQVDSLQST

[11] = target: T1, Dual specificity protein phosphatase 6; format: functional
Jurkat [12] = test: blockers of NF-kB activation in T cells – Jurkat, luciferase reporter, luminescence, B- and T-cell, dose response (AID 489004); format: functional, cell-based; settings: Homo sapiens;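 also: NF-kB luciferase reporter Jurkat cells stimulated with PMA plus ionomycin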
[13] = HEK-293T viability loss, compound-treated – cell-based, uHTS hits, cytotoxicity control for B/T-cell NF-kB inhibitor project, dose response (AID 489019); format: functional;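 also: IC50 reflects cytotoxicity as loss of cell viability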
INS1 = test: INS-1E survival protection against cytokine death – cell-based, luminescence, retest, dose response (AID 449756); format: functional; settings: Rattus norvegicus;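 also: cell death triggered by IL-1 beta plus TNF-alpha plus IFN-gamma mixture; protective hits raise ATP signal compared with cytokine alone wells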
Candida albicans [14] = test: Candida growth inhibition combined with fluconazole – CaCi-2 strain, Alamar Blue, dry powder, set 3, dose response (AID 488907); format: functional, organism-based
HEK293 [15] = test: HEK293T cell viability loss, resazurin readout – resazurin fluorescence, cytotoxicity control for NF-kB activator project, SAR follow-up (AID 493251); format: functional, cell-based; settings: Homo sapiens
Jurkat [16] = test: SAR Analysis of small molecule inhibitors of T-cell specific antigen receptor-induced NF-kB activation in a Jurkat cell line using a luminescence assay. [Related pubchem assays (depositor defined):AID435003, AID435012, AID465]; format: functional, cell-based; settings: Homo sapiens
HEK293 [17] = test: SAR Analysis of small molecule inhibitors of T-cell specific antigen receptor-induced NF-kB activation in a HEK-293T cell line using a luminescence assay. [Related pubchem assays (depositor defined):AID435003, AID435012, AID489026]; format: functional, cell-based; settings: Homo sapiens

Mu-type opioid receptor, sequence (P35372 whole entry): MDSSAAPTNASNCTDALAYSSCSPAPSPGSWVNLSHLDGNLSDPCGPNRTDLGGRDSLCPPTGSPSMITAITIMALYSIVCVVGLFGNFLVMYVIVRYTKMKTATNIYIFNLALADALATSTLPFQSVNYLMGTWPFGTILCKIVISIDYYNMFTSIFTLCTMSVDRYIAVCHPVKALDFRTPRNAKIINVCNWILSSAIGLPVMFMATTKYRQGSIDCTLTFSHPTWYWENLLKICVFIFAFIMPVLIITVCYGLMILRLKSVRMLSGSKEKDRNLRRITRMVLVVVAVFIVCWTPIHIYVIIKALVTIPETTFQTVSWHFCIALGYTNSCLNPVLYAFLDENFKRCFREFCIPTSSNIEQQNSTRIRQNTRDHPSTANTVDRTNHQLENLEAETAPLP
5-hydroxytryptamine receptor 5A, sequence (P47898 whole entry): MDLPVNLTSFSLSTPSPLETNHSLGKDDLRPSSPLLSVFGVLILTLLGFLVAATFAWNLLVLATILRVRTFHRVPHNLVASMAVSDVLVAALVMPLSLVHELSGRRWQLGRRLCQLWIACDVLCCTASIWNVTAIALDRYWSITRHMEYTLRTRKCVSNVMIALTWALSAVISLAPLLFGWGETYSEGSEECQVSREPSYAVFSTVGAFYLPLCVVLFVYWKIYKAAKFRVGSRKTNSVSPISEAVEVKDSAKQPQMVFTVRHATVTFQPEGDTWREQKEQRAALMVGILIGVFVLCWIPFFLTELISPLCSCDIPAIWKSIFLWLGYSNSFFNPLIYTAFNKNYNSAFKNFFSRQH
Cysteine protease ATG4B, sequence (Q9Y4P1 whole entry): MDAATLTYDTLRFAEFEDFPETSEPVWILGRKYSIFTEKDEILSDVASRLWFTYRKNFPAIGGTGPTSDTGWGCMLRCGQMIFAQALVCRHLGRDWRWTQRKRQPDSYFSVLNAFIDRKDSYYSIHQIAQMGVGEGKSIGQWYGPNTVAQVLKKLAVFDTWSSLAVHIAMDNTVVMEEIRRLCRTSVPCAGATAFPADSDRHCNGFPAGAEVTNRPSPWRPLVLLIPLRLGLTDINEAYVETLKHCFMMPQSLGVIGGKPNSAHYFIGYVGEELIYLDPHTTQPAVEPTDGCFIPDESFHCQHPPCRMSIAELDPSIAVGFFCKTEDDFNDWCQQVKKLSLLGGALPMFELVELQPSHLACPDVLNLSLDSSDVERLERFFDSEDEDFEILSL
Delta-type opioid receptor, sequence (P41143 whole entry): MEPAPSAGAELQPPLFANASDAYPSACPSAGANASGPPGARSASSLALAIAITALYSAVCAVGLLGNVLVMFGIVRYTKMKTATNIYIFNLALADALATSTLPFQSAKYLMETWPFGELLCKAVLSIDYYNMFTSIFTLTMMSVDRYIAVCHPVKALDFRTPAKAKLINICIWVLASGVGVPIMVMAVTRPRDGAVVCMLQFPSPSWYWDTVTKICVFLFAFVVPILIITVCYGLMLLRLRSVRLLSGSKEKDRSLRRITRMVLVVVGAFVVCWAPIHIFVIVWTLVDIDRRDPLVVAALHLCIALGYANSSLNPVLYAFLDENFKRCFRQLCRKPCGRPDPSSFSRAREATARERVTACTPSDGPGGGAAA
DNA topoisomerase, sequence (A0A2S9PM60 whole entry): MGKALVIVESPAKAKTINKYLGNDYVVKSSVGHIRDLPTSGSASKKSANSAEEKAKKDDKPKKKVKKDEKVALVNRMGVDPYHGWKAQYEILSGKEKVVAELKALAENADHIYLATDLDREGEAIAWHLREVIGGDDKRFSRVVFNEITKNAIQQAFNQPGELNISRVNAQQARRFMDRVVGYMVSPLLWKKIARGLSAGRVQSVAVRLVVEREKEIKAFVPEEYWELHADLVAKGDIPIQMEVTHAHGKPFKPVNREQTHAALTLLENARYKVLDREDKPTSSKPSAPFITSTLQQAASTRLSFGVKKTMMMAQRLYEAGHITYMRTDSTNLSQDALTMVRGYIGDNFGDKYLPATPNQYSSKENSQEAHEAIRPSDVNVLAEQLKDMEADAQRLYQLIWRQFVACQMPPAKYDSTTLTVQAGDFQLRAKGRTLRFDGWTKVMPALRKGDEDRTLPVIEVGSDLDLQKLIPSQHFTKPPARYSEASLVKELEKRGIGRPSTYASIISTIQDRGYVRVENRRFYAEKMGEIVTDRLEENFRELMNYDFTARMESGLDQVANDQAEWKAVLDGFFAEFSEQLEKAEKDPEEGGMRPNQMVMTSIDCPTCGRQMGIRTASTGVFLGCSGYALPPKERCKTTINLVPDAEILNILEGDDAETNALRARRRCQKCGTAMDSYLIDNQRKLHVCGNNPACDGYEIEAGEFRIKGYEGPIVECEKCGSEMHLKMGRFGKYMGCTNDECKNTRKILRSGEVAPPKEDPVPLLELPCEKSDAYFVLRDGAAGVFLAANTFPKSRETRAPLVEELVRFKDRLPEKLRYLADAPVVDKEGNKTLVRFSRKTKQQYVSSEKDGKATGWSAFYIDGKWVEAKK
Tyrosine-protein phosphatase non-receptor type 7, sequence (P35236 whole entry): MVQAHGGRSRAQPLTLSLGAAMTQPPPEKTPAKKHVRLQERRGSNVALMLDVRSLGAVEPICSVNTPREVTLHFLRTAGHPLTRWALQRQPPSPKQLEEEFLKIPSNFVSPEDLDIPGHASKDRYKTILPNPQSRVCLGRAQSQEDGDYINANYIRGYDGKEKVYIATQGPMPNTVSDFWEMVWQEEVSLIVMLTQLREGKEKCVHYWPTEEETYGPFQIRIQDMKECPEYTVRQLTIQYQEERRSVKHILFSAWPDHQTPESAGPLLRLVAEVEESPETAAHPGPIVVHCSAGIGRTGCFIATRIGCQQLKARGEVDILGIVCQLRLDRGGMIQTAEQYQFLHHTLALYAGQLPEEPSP
Glyceraldehyde-3-phosphate dehydrogenase, sequence (P04406 whole entry): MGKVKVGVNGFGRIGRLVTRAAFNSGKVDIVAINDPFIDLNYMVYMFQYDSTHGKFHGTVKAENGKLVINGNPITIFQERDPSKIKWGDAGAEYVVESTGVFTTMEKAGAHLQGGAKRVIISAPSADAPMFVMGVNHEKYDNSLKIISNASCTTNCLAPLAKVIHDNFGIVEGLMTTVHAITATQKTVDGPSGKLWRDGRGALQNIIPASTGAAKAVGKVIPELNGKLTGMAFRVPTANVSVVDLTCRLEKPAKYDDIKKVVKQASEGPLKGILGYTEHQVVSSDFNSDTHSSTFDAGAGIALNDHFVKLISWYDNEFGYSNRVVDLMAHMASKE
Phospholipase A2, sequence (P04054 whole entry): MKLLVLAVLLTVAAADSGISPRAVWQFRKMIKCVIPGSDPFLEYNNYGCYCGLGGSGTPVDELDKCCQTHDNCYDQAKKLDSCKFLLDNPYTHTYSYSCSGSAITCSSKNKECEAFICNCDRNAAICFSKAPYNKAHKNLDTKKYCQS

For `O=C(Nc1ccc(C(F)(F)F)cc1)N1CCN(c2ccnc3cc(Cl)ccc23)CC1`, the EC50 [1] was 3.22 µM (active), the EC50 [2] was > 60 µM (not active) and the AC50 (Candida albicans [3]) was 9.05 µM (active). The AC50 (Candida albicans [4]) was 4.73 µM (active), the AC50 (Candida albicans [5]) was 0.404 µM (active) and the AC50 (NIH3T3) was 7.27 µM (active).

With `Cc1cc(C(=O)COC(=O)Cc2nnc(O)c3ccccc23)c(C)n1-c1cccc(C(F)(F)F)c1` the AC50 (DNA topoisomerase) was 11.4 µM (active).

For `O=C(NCc1cccc(C(F)(F)F)c1)C1CC(c2c(Cl)cccc2Cl)=NO1` (stereo not drawn), the IC50 (Phospholipase A2) was 46.4 µM (inactive) and the IC50 (Cysteine protease ATG4B) was > 80 µM (inactive).

With `Cc1ccc(CSCC(=O)N/N=C/c2sccc2C)cc1` the EC50 [6] was > 92.5 µM (inactive), the EC50 (Mu-type opioid receptor) was 42.8 µM (inactive) and the EC50 [7] was > 92.5 µM (inactive).

For `NC(=O)[C@H](Cc1ccccc1)n1c(=O)n(Cc2ccc(Br)cc2)c(=O)n(-c2ccccc2)c1=O`, the IC50 [8] was > 100 µM (not active), the IC50 [9] was > 100 µM (not active) and the IC50 [10] was > 100 µM (inactive). For the same compound, the IC50 [11] was > 100 µM (inactive).

With `Cc1ccc(NC(=O)COc2ccc(N(C)C(=O)C(C)(C)C)cc2)cc1S(=O)(=O)N1CCCCC1` the IC50 (Jurkat [12]) was 8.2 µM (active), the IC50 [13] was > 80 µM (inactive) and the AC50 (INS1) was 5.61 µM (active).

With `CC(C)C(=O)N1CCN(c2ccccn2)CC1` the AC50 (Candida albicans [14]) was 0.961 µM (active).

In the case of `COc1cccc(C(=O)Nc2ccc3[nH]c(-c4cccc(OC)c4)cc(=O)c3c2)c1`, the IC50 (HEK293 [15]) is reported as 42.2 µM (inactive), the IC50 (Jurkat [16]) is reported as > 79 µM (inactive) and the IC50 (HEK293 [17]) is reported as > 79 µM (inactive).
